Paper PMC11026318, “Radiolabeled 15-mer peptide internalization is mediated by megalin (LRP2 receptor) in a CRISPR/Cas9-based LRP2 knockout human kidney cell model” (EJNMMI Radiopharmacy and Chemistry, 2024)

Tests used:
[1] = test system: HK2 cells (parent, partial KO, LRP2 KO); assay: Viability assay with gentamicin at cytotoxic concentration (CellTiter 96 AQueous One); type: cell-based, human; conditions: gentamicin 6 mg/mL, 48 h
Protocol: The cells were seeded in a 96-well plate (10^4 cells per well) 24 h prior to the experiment. The cells treated with gentamicin at cytotoxic concentration (6 mg/mL) were incubated in parallel with the controls in standard culture medium (representing 100% cell viability). The cells cultivated with 10% DMSO in culture medium represent 0% cell viability, which was measured after 48 h using the CellTiter 96® AQueous One Solution Cell Proliferation Assay (Promega) according to the manufacturer’s protocol. Absorbance was detected using a spectrophotometric plate reader (TECAN Infinite M200).

[2] = test system: vascular endothelial growth factor (VEGF) receptor; conditions: in both in vitro and in vivo studies; ref Basile et al. [2011]; cited from earlier work
[3] = molecular target: T1, megalin (LRP2 receptor) in HK2 cells (Homo sapiens, UniProt P98164); assay: FITC-albumin accumulation studies in parent HK2 vs LRP2 knockout cells; type: cell-based; conditions: 24 µg/mL, 2 h; fluorescence of cell lysates related to total protein
T1 construct: a human kidney cell line with high endogenous megalin expression; host or cells: HK2 human kidney epithelial cells (parent), compared with CRISPR/Cas9 LRP2 KO derivatives
T1 sequence (P98164 26-4655): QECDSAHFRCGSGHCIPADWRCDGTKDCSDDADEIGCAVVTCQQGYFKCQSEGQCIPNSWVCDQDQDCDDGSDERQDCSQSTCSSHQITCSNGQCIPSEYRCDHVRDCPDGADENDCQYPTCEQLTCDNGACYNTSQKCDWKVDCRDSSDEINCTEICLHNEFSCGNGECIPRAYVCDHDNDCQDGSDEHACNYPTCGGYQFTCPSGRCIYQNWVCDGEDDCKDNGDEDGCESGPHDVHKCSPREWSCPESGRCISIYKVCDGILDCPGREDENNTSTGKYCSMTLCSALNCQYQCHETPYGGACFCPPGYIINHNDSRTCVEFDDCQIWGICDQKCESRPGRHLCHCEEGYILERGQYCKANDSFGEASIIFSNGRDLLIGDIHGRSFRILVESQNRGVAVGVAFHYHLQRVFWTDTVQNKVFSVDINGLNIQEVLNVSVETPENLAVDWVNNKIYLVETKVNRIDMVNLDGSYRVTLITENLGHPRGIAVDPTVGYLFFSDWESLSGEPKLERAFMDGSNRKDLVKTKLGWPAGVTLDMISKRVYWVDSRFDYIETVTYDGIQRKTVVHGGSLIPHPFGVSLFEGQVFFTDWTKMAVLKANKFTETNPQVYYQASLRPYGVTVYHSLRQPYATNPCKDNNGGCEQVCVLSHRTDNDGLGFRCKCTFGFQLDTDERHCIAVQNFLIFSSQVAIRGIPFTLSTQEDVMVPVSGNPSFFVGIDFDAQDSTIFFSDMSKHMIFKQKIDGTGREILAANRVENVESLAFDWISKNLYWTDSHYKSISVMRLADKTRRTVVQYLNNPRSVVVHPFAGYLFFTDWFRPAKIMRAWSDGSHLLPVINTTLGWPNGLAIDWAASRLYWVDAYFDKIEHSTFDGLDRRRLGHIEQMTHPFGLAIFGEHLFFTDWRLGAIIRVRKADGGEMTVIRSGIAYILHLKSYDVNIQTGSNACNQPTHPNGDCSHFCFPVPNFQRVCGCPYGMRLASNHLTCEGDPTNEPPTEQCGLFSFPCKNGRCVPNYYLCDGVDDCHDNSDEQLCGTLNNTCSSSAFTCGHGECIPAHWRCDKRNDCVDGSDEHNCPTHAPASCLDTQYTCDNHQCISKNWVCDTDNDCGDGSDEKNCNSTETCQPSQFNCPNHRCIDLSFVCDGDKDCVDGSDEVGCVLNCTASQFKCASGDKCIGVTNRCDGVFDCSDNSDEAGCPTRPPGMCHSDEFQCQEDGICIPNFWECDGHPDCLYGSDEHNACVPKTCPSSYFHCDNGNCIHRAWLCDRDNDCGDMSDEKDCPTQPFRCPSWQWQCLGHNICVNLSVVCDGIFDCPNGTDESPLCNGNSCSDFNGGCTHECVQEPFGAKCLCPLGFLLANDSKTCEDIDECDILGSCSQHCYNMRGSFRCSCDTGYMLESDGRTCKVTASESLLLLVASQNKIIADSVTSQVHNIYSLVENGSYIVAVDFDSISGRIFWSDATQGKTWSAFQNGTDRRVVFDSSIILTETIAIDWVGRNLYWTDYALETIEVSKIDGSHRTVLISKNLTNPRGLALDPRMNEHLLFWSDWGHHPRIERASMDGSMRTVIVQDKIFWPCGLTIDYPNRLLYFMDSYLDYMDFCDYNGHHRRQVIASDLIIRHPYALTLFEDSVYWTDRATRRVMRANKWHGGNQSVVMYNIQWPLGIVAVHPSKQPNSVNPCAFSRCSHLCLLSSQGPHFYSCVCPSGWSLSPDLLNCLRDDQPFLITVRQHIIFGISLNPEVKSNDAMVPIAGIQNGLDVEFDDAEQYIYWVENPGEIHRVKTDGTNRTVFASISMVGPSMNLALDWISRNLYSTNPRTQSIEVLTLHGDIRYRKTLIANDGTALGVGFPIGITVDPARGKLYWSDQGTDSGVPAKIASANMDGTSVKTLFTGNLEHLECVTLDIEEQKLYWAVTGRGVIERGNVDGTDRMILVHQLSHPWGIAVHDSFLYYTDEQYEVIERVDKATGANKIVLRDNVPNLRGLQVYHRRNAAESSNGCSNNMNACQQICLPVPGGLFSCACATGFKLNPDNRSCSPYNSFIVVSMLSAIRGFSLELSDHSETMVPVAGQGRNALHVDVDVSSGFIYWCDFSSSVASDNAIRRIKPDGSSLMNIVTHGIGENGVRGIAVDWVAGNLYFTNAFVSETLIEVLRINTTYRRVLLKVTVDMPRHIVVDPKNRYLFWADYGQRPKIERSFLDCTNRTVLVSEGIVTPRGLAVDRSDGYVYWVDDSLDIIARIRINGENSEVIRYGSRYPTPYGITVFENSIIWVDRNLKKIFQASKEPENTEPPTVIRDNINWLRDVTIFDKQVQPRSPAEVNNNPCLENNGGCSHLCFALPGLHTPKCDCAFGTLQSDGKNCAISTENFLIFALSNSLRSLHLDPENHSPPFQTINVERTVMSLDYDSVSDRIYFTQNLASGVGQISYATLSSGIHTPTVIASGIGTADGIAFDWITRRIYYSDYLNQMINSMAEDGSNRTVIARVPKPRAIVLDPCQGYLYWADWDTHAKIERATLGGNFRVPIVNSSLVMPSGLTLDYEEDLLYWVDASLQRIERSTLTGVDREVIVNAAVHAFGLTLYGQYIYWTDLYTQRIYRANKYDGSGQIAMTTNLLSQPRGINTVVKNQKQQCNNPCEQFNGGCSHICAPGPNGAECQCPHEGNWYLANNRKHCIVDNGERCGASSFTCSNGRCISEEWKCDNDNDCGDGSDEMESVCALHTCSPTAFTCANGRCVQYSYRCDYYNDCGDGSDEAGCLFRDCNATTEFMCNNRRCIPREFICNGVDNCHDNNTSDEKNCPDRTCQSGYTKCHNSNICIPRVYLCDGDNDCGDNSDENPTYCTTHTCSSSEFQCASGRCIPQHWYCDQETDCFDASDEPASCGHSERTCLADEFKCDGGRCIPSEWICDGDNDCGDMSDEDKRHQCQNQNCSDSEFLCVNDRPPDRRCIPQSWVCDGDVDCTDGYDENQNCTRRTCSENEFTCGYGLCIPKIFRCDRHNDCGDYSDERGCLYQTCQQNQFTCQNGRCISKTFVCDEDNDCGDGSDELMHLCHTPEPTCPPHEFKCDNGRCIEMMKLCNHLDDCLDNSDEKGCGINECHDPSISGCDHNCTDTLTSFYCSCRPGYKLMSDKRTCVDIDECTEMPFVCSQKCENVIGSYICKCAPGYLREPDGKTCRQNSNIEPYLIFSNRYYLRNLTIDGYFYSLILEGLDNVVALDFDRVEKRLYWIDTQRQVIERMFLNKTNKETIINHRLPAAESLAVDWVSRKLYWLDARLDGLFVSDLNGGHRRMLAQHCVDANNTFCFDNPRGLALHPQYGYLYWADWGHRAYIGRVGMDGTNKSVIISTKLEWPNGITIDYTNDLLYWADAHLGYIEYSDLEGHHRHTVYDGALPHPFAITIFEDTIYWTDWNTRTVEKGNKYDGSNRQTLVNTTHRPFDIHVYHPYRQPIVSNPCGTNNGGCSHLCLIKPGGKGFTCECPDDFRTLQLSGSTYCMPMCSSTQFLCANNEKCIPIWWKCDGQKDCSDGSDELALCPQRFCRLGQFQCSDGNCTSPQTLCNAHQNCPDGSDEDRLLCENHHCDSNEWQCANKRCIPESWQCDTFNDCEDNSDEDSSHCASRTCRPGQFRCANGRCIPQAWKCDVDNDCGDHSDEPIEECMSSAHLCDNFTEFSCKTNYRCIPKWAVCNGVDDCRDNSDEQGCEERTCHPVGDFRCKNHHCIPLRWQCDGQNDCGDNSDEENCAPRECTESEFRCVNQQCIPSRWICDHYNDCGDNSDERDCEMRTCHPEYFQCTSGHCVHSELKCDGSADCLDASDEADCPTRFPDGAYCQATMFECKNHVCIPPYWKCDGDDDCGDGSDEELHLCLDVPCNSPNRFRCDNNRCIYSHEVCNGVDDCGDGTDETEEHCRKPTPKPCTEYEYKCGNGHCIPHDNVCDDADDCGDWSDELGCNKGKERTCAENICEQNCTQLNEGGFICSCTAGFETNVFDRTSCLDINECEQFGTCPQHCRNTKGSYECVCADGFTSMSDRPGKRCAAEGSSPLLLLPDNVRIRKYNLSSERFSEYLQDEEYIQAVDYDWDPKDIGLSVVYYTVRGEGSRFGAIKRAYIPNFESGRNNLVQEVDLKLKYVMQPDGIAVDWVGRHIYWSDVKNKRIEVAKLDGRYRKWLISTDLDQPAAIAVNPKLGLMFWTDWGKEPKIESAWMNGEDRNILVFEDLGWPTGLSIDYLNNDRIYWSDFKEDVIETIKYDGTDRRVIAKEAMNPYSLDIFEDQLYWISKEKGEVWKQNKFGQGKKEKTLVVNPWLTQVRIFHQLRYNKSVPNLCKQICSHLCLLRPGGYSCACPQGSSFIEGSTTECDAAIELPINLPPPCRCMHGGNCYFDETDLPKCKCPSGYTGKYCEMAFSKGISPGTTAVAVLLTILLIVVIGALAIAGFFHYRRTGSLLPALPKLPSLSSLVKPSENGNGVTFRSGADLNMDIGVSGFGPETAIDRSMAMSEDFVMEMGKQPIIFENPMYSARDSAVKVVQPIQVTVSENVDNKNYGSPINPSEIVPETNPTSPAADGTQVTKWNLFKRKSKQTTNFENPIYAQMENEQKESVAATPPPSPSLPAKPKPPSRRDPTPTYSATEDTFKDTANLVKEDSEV
Protocol: The CRISPR/cas9 gene editing technique was implemented to generate LRP2 KO HK2 cells (Fig. 1) employing designed sgRNA sequences (Table 1). HK2 cells were seeded on 24-well plate (10^5 cells/well). Cells were transfected by sgRNA (720 ng per reaction) and TrueCut™ Cas9 Protein v2 (3 840 ng per reaction; Invitrogen) using Lipofectamine™ CRISPRMAX™ Cas9 Transfection Reagent (Invitrogen) according to the manufacturer’s instructions 24 h after seeding. The knockout reactions were repeated twice for each sgRNA. Each transfection was performed after 48 h of recovery. The final group of cells transfected sequentially six times was designated as LRP2 KO. A group of cells transfected only once with NPMY sgRNA but twice with TMD and PPPSPS sgRNAs, was designated as partial KO (Figs. 2A–E, 5A and B).
The accumulation studies of fluorescein isothiocyanate-labelled albumin (FITC-albumin, Merck) were performed in 24-well plates (10^5 cells per well). The cells were incubated with 24 µg/mL FITC-albumin, and Passive Lysis Buffer (Promega) was added to lyse the cells after 2 h treatment. The accumulated FITC-albumin was quantified by measuring the fluorescence intensity of cell lysates (Tecan Spark® multimode microplate reader). Fluorescence intensity was plotted against total protein concentration determined by the commercially available Pierce™ BCA Protein Assay Kit (ThermoFisher Scientific).

CNC(C)C1CCC(N)C(OC2C(N)CC(N)C(OC3OCC(C)(O)C(NC)C3O)C2O)O1 (stereo not drawn) [gentamicin]
Viability of partial KO or LRP2 KO cells after treatment, compared to HK2 parent cells [1]: higher viability

Ac-KLTWMELYQLAYKGI-NH2 [15-mer, 15 amino acid anti-VEGFR peptide, custom synthesized according to a previously published structure (Basile et al. 2011)]
Antiangiogenic effects [2]: potent antiangiogenic effects

fluorescein isothiocyanate-labelled albumin [FITC-albumin]
FITC-albumin accumulation in KO cells vs parent HK2 cells [3]: Reduced FITC-albumin accumulation
